# Entries after “also recorded” stand apart in the source; their conditions may differ.
# Assays:
# pig kidney fucokinase [1] = target: T1, pig kidney fucokinase (Sus scrofa, UniProt I3LTC2); assay: Effect of metal ions on fucokinase activity; assay type: biochemical; settings: for effect on activity when added to incubations containing Mg++ (in words): metal ion at 1 mM
# T1 construct: L-Fucokinase was purified to apparent homogeneity from the cytosolic fraction of pig kidney; from tissue; host or cells: pig kidney, cytosolic fraction
# T1 sequence (I3LTC2 1-1083): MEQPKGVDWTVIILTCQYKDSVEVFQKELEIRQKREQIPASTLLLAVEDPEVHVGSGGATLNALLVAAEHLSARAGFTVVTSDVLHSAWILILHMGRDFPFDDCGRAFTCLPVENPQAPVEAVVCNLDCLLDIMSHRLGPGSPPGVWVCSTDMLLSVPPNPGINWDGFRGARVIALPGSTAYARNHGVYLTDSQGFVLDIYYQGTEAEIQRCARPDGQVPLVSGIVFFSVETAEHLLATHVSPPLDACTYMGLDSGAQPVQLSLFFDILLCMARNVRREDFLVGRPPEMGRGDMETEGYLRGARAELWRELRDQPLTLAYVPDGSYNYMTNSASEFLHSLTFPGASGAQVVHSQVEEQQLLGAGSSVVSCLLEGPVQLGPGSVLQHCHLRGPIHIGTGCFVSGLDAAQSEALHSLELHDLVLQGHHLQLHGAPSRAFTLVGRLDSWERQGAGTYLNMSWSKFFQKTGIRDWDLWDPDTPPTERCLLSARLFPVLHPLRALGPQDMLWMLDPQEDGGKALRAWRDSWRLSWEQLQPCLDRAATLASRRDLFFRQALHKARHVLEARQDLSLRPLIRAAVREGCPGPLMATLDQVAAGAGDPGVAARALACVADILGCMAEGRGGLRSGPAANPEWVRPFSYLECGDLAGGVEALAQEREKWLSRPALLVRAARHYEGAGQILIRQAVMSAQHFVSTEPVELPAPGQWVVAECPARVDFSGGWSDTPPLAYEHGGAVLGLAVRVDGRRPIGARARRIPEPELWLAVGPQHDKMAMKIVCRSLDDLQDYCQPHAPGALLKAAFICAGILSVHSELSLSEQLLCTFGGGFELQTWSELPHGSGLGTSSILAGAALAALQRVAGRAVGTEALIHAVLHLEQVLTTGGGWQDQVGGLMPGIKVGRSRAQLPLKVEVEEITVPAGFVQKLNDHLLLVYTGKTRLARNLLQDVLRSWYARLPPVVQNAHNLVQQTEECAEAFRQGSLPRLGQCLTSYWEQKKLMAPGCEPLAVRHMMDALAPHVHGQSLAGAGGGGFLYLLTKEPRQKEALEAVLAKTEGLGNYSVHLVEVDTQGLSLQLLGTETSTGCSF
# Method: Increasing concentrations of the metal ions shown were added to incubations of the purified enzyme with ^3 H-fucose and ATP, and the formation of fucose-1-P was measured as described below. Metal ions tested were as follows: Mg^++, filled circles; Fe^++, filled diamonds; Co^++, filled triangles; Mn^++, filled squares.
# (§1) Fucokinase activity was assayed by measuring the production of L-fucose-1-Pfrom [^3 H]L-fucose and ATP. The incubation mixtures contained the following components (final concentrations) in a total volume of 150 μl: L-fucose, 0.1 mM; ATP, 5 mM; MgSO4, 5 mM; Tris-HCl buffer, pH 8.0, 65 mM; and various amounts of enzyme at the different stages of purification. Incubations were at 37° C. for 10 minutes, and reactions were terminated by heating the reaction mixtures in a boiling water bath for 1 minute. The incubation mixtures were then applied to a column of DE-52 contained in a Pasteur pipette, and the column was washed with at least 5 column volumes of 10 mM (NH4)HCO3 to remove the unbound material. The [^3 H]fucose-1-P was then eluted with 500 mM (NH4)HCO3. Aliquots of the eluates were assayed for their radioactive content by subjecting a portion to scintillation counting.
# Co^++ and Mn^++ were also stimulatory with maximum activity occurring at about 3 to 5 mM, but the maximum activity was only about 25% to 33% of that observed with Mg^++.
# pig kidney fucokinase [2] = target: T1, pig kidney fucokinase; assay: Specificity of fucokinase for phosphate donor (nucleotides); assay type: biochemical; settings: for activity as phosphate donor (in words): nucleotide added at 1 mM
# Method: as §1
# The specificity of the nucleoside triphosphate was also examined by testing the ability of a variety of nucleotides to serve as phosphate donors in the phosphorylation of [^3 H]L-fucose. […] In addition, no activity is observed with any nucleoside diphosphates or monophosphates.
# pig kidney fucokinase [3] = target: T1, pig kidney fucokinase; assay: Sugar specificity of purified fucokinase (radiolabeled sugars as phosphate acceptors); assay type: biochemical
# Method: as §1
# The specificity of the kinase for various sugar substrates was examined in two different ways. In the first set of experiments, various radiolabeled sugars were tested as phosphate acceptors for the purified enzyme using the ion-exchange chromatography method for assay of activity. […] D-Arabinose, which has the same configuration at carbons 1 through 4 as L-fucose, was also a reasonable substrate for phosphorylation, and was about 10% as effective as L-fucose. On the other hand, all of the other sugars were ineffective as phosphate acceptors.
# pig kidney fucokinase [4] = target: T1, pig kidney fucokinase; assay: Inhibition of [3H]L-fucose phosphorylation by unlabeled monosaccharides; assay type: biochemical; settings: for inhibition of phosphorylation of [3H]L-fucose (in words): unlabeled sugar 500 μM
# Method: as §1
# Although it was possible to get a reasonable assessment of the sugar specificity of the kinase from the above experiment, it was not possible to test sugars such as D-fucose, since these sugars are not available in radioactive form. Thus, these unlabeled sugars were tested for their ability to inhibit the phosphorylation of [^3 H]L-fucose. The rationale for this experiment is that a sugar that inhibits the phosphorylation of L-fucose would probably compete with L-fucose for the phosphorylation (i.e., active) site.
# [5] = system: pig liver L-fucokinase preparation; settings: cited from earlier work
# [6] = target: T2, pig kidney fucokinase (110 kDa band) (Sus scrofa, UniProt I3LTC2); assay: Photoaffinity labeling of the fucokinase with 8-azido-ATP[32P]; assay type: binding; settings: incubation with probe, exposure to UV light
# T2 construct: L-Fucokinase was purified to apparent homogeneity from the cytosolic fraction of pig kidney; from tissue; host or cells: pig kidney, cytosolic fraction
# T2 sequence (I3LTC2 1-1083): T1 sequence (I3LTC2 1-1083)
# Method: The purified enzyme was incubated for 20 seconds with azido-ATP[^32 P], and the mixture was exposed to UV for 90 seconds. The reaction was stopped by adding loading buffer and the mixture subjected to SDS-PAGE. Radioactive bands were detected by exposure to film. Lanes are as follows: Lane 1, Probe+enzyme, but no UV; Lane 2, Probe+enzyme+UV; Lanes 3 through 6. Probe+enzyme+0.3, 0.6, 0.9, and 1.2 mM ATP+exposure to UV light; lanes 7 and 8, 0.6 and 1.2 mM GTP+probe+exposure to UV light: lanes 9 and 10, 0.6 and 1.2 mM ITP+probe+exposure to UV light. In lanes 11 and 12, the enzyme was incubated with N3 -GTP[^32 P ] and then exposed to UV light (lane 12) or not exposed to UV light (lane 11). Lane 13 is a control of enzyme+N3 -ATP[^32 P]+exposure to UV light.
# Enzyme, at various stages of purity, was mixed with 8-azido-ATP[^32 P] in buffer, and allowed to incubate for 20 sec. in an ice bath. 8-Azido-ATP[^32 P] was prepared as previously described (16). After incubation, the reaction mixture was exposed to short wave UV light for about 90 sec. to activate the azido group, and the protein was subjected to SDS gel electrophoresis to separate the proteins. The gels were dried and exposed to film to locate the radioactive bands and were also stained with Coomassie blue to locate the various proteins. The specificity of the labeling was determined by examining the effect of various concentrations of unlabeled ATP or other nucleotides on the labeling of the protein by N3 -ATP[^32 P]. Various controls were also run, such as one in which exposure to UV was omitted.
# Lanes 11-13 of FIG. 3 show the results of another experiment designed to determine whether 8-N3 -GTP[^32 P] could label the fucokinase. […] These experiments indicate that the fucokinase is quite specific for ATP.
smiles,measurement,setting,value
[Fe+3] [Fe^+++],stimulation of enzyme activity by metal ion (in words),pig kidney fucokinase [1],inactive
[Fe+2] [Fe^++],metal ion concentration at optimum (maximum) activity,pig kidney fucokinase [1],about 10 mM
same,stimulation of enzyme activity by metal ion (in words),pig kidney fucokinase [1],nearly the same degree as Mg^++
Nc1nc2c(ncn2[C@@H]2O[C@H](COP(=O)(O)OP(=O)(O)O)[C@@H](O)[C@H]2O)c(=O)[nH]1 [GDP],activity as phosphate donor (in words),pig kidney fucokinase [2],Inactive
Nc1nc2c(ncn2[C@@H]2O[C@H](COP(=O)(O)O)[C@@H](O)[C@H]2O)c(=O)[nH]1 [GMP],activity as phosphate donor (in words),pig kidney fucokinase [2],Inactive
[Hg+2] [Hg^++],stimulation of enzyme activity by metal ion (in words),pig kidney fucokinase [1],inactive
same,effect on activity when added to incubations containing Mg++ (in words),pig kidney fucokinase [1],completely inhibited activity
C[C@H](O)[C@@H](O)[C@@H](O)[C@H](O)C=O [L-fucose],activity as phosphate acceptor (in words),pig kidney fucokinase [3]; purified enzyme,by far the best substrate; also recorded: active as phosphate acceptors
same,Specific Activity,pig kidney fucokinase [3]; radiolabeled sugar 100 μM as phosphate acceptor,11.8 nmole/mg protein
same,Relative Activity (%),"pig kidney fucokinase [4]; unlabeled monosaccharide 500 μM, radiolabeled L-fucose substrate 100 μM",23%
same,inhibition of phosphorylation of [3H]L-fucose (in words),pig kidney fucokinase [4],reasonable inhibitor
C[C@H](O)[C@H](O)[C@@H](O)[C@@H](O)C=O [L-rhamnose],inhibition of phosphorylation of [3H]L-fucose (in words),pig kidney fucokinase [4],ineffective as inhibitors
same,phosphorylation of sugar by the about 70-fold purified preparation (in words),[5],considerable activity for phosphorylating
[Mg+2] [Mg^++],stimulation of enzyme activity by metal ion (in words),pig kidney fucokinase [1],gave the best stimulation
[Mo+2] [Mo^++],stimulation of enzyme activity by metal ion (in words),pig kidney fucokinase [1],inactive
"[N-]=[N+]=Nc1nc2c(N)ncnc2n1[C@@H]1O[C@H](COP(=O)(O)OP(=O)(O)OP(=O)(O)O)[C@@H](O)[C@H]1O [N3 -ATP[^32 P], 8-azido-ATP[^32 P]]",labeling of the 110 kDa protein by photoprobe (in words),[6],did result in labeling of the 110 kDa protein
[Ni+2] [Ni^++],stimulation of enzyme activity by metal ion (in words),pig kidney fucokinase [1],inactive
O=c1ccn([C@@H]2O[C@H](COP(=O)(O)OP(=O)(O)O)[C@@H](O)[C@H]2O)c(=O)[nH]1 [UDP],activity as phosphate donor (in words),pig kidney fucokinase [2],Inactive
O=c1ccn([C@@H]2O[C@H](COP(=O)(O)O)[C@@H](O)[C@H]2O)c(=O)[nH]1 [UMP],activity as phosphate donor (in words),pig kidney fucokinase [2],Inactive
O=c1ccn([C@@H]2O[C@H](COP(=O)(O)OP(=O)(O)OP(=O)(O)O)[C@@H](O)[C@H]2O)c(=O)[nH]1 [UTP],Specific Activity,pig kidney fucokinase [2]; nucleotide added at 1 mM as phosphate donor,0.04 nmoles/mg protein/10 min
same,use as phosphate donor (in words),[5],could also use
[Zn+2] [Zn^++],stimulation of enzyme activity by metal ion (in words),pig kidney fucokinase [1],inactive
same,effect on activity when added to incubations containing Mg++ (in words),pig kidney fucokinase [1],completely inhibited activity
